Read-outs that look alike come from different tables or passages of the source.
Columns and labels:
Type in all cases: cell-based
E. coli ESBL4 CTX-M-15 = assay: Broth microdilution MIC, E. coli ESBL4; settings: Escherichia coli
Description: (§1) To determine the ability of test compounds to potentiate the inhibition of the growth of bacterial strains that produce beta-lactamase enzymes, classic cell based broth microdilution MIC assays were employed. Six bacteria strains producing beta-lactamase enzymes were used: E. coli expressing the Class A Extended Spectrum Beta-Lactamase (ESBL) CTX-M-15, E. cloacae expressing the Class C P99, K. pneumoniae expressing the Class A carbapenemase KPC-2, P. aeruginosa expressing the Class B carbapenemase VIM-2, K. pneumoniae expressing the class A carbapenemase KPC-2 and the class B carbapenemase VIM-4, and S. aureus producing the Class A penicillinase PC-1. The assay was conducted in Cation Adjusted Mueller Hinton Broth (CAMHB, BD #212322, BD Diagnostic Systems, Sparks, Md.). Bacteria strains were grown for 3-5 hours in CAMBH broth. Test compounds were added to a microtiter plate in 2-fold serial dilutions in CAMHB in a final concentration range of 32 μg/mL to 0.25 μg/ml. An overlay of CAMHB containing a Beta-lactam was added to the compounds at a final static concentration of 4 μg/ml. […] In addition to the titration of test compounds the MICs of a panel of control beta-lactams is also tested to ensure the strains are behaving consistently from test to test. Once the test compound and antibiotics are added the plates can be inoculated according to CLSI broth microdilution method. After inoculation the plates are incubated for 16-20 hours at 37° C. then the Minimal Inhibitory Concentration (MIC) of the test compound is determined visually.
(§2) Using the methodology described above in EXAMPLE III, exemplary compounds for Formula I or Formula Ia were evaluated for their ability to inhibit the growth of β-lactamase producing bacteria in the presence of a β-lactam antibiotic.

E. cl 144200 p99 AmpC = assay: Broth microdilution MIC, E. cloacae 144200; settings: Enterobacter cloacae
Description: as §1, §2

K.P. A-1797 KPC-2 VIM-4 = assay: Broth microdilution MIC, K. pneumoniae A-1797; settings: Klebsiella pneumoniae; fixed meropenem 4 μg/mL, CAMHB, 16-20 hours 37° C.; read-out: MIC of exemplary compounds in presence of fixed β-lactams, Fixed Mero, K.P. A-1797 KPC-2 VIM-4
Description: as §1, §2

S. aureus MSSA-7 PC-1 = assay: Broth microdilution MIC, S. aureus MSSA-7; settings: Staphylococcus aureus, fixed piperacillin 4 μg/mL, CAMHB, 16-20 hours 37° C., read-out: MIC of exemplary compounds in presence of fixed β-lactams, Fixed Pip, S. aureus MSSA-7 PC-1
Description: as §1, §2

K.P. 156319 KPC-3 = assay: Broth microdilution MIC, K. pneumoniae 156319; settings: Klebsiella pneumoniae; fixed meropenem 4 μg/mL, CAMHB, 16-20 hours 37° C.; read-out: MIC of exemplary compounds in presence of fixed β-lactams, Fixed Mero, K.P. 156319 KPC-3
P. aerug. Ps296 VIM-2 = assay: Broth microdilution MIC, P. aeruginosa Ps296; settings: Pseudomonas aeruginosa; fixed meropenem 4 μg/mL, CAMHB, 16-20 hours 37° C.; read-out: MIC of exemplary compounds in presence of fixed β-lactams, Fixed Mero, P. aerug. Ps296 VIM-2
Description: as §1, §2

[1] = ESBL4CTXM15, fixed ceftazidime 4 μg/mL, CAMHB, 16-20 hours 37° C., read-out: MIC of exemplary compounds in presence of fixed β-lactams, Fixed CAZ, E. coli ESBL4 CTX-M-15
[2] = fixed ceftazidime 4 μg/mL, CAMHB, 16-20 hours 37° C., read-out: MIC of exemplary compounds in presence of fixed β-lactams, Fixed CAZ, E. cl 144200 p99 AmpC

Compound | MIC (E. coli ESBL4 CTX-M-15; ESBL4CTXM15, read-out: MIC alone) | MIC (E. cl 144200 p99 AmpC; read-out: MIC alone) | MIC (K.P. A-1797 KPC-2 VIM-4) | MIC (S. aureus MSSA-7 PC-1) | MIC (E. coli ESBL4 CTX-M-15; [1]) | MIC (E. cl 144200 p99 AmpC; [2]) | MIC (K.P. 156319 KPC-3) | MIC (P. aerug. Ps296 VIM-2)
CC(C)(O/N=C(\C(=O)N[C@@H]1C(=O)N2C(C(=O)[O-])=C(C[n+]3ccccc3)CS[C@H]12)c1csc(N)n1)C(=O)O [Ceftazidime, reference compound] | > 128 µg/mL | 128 µg/mL | – | – | – | – | – | –
NC[C@H]1CC[C@H](C(=O)N[C@H]2Cc3cccc(C(=O)O)c3OB2O)CC1 [Example 1, (R)-3-(trans-4-(aminomethyl)cyclohexanecarboxamido)-2-hydroxy-3,4-dihydro-2H-benzo[e][1,2]oxaborinine-8-carboxylic acid] | – | – | < 4 µg/mL | 8 to 32 µg/mL | < 4 µg/mL | < 4 µg/mL | < 4 µg/mL | < 4 µg/mL
N[C@H]1CC[C@H](C(=O)N[C@H]2Cc3cccc(C(=O)O)c3OB2O)CC1 [Example 2, (R)-3-(trans-4-aminocyclohexanecarboxamido)-2-hydroxy-3,4-dihydro-2H-benzol[e][1,2]oxaborinine-8-carboxylic acid] | – | – | < 4 µg/mL | 8 to 32 µg/mL | < 4 µg/mL | < 4 µg/mL | < 4 µg/mL | < 4 µg/mL
NC[C@H]1CC[C@H](CC(=O)N[C@H]2Cc3cccc(C(=O)O)c3OB2O)CC1 [Example 3] | – | – | 8 to 32 µg/mL | < 4 µg/mL | < 4 µg/mL | < 4 µg/mL | < 4 µg/mL | < 4 µg/mL
N=C(N)NC[C@H]1CC[C@H](CC(=O)N[C@H]2Cc3cccc(C(=O)O)c3OB2O)CC1 [Example 4, (R)-3-(2-(trans-4-(guanidinomethyl)cyclohexyl)acetamido)-2-hydroxy-3,4-dihydro-2H-benzo[e][1,2]oxaborinine-8-carboxylic acid] | – | – | 8 to 32 µg/mL | < 4 µg/mL | < 4 µg/mL | < 4 µg/mL | < 4 µg/mL | < 4 µg/mL
CN(C)CC(=O)NC[C@H]1CC[C@H](CC(=O)N[C@H]2Cc3cccc(C(=O)O)c3OB2O)CC1 [Example 5, (R)-3-(2-(trans-4-((2-(dimethylamino)acetamido)methyl)cyclohexyl)acetamido)-2-hydroxy-3,4-dihydro-2H-benzo[e][1,2]oxaborinine-8-carboxylic acid] | – | – | > 32 µg/mL | < 4 µg/mL | < 4 µg/mL | < 4 µg/mL | 8 to 32 µg/mL | < 4 µg/mL
N[C@H]1CC[C@H](CC(=O)N[C@H]2Cc3cccc(C(=O)O)c3OB2O)CC1 [Example 6, (R)-3-(2-(trans-4-aminocyclohexyl)acetamido)-2-hydroxy-3,4-dihydro-2H-benzol[e][1,2]oxaborinine-8-carboxylic acid] | – | – | < 4 µg/mL | < 4 µg/mL | < 4 µg/mL | < 4 µg/mL | < 4 µg/mL | < 4 µg/mL
N[C@H]1CC[C@@H](CC(=O)N[C@H]2Cc3cccc(C(=O)O)c3OB2O)CC1 [Example 7, (R)-3-(2-(cis-4-aminocyclohexyl)acetamido)-2-hydroxy-3,4-dihydro-2H-benzo[e][1,2]oxaborinine-8-carboxylic acid] | – | – | > 32 µg/mL | 8 to 32 µg/mL | < 4 µg/mL | < 4 µg/mL | < 4 µg/mL | > 32 µg/mL
CN(C)C[C@H]1CC[C@H](CC(=O)N(C)[C@H]2Cc3cccc(C(=O)O)c3OB2O)CC1 [Example 8, (R)-3-(2-(trans-4-((dimethylamino)methyl)cyclohexyl)-N-methylacetamido)-2-hydroxy-3,4-dihydro-2H-benzo[e][1,2]oxaborinine-8-carboxylic acid] | – | – | > 32 µg/mL | < 4 µg/mL | < 4 µg/mL | < 4 µg/mL | 8 to 32 µg/mL | 8 to 32 µg/mL
N=C(N)N[C@H]1CC[C@H](CC(=O)N[C@H]2Cc3cccc(C(=O)O)c3OB2O)CC1 [Example 9, (R)-3-(2-(trans-4-guanidinocyclohexyl)acetamido)-2-hydroxy-3,4-dihydro-2H-benzo[e][1,2]oxaborinine-8-carboxylic acid] | – | – | 8 to 32 µg/mL | < 4 µg/mL | < 4 µg/mL | < 4 µg/mL | < 4 µg/mL | 8 to 32 µg/mL
NCCNC[C@H]1CC[C@H](CC(=O)N[C@H]2Cc3cccc(C(=O)O)c3OB2O)CC1 [Example 10, (R)-3-(2-(trans-4-((2-aminoethylamino)methyl)cyclohexyl)acetamido)-2-hydroxy-3,4-dihydro-2H-benzo[e][1,2]oxaborinine-8-carboxylic acid] | – | – | < 4 µg/mL | < 4 µg/mL | < 4 µg/mL | < 4 µg/mL | < 4 µg/mL | 8 to 32 µg/mL
NCC1CCC(=CC(=O)N[C@H]2Cc3cccc(C(=O)O)c3OB2O)CC1 (stereo partly drawn) [Example 11, (3R)-3-(2-(4-(aminomethyl)cyclohexylidene)acetamido)-2-hydroxy-3,4-dihydro-2H-benzo[e][1,2]oxaborinine-8-carboxylic acid] | – | – | 8 to 32 µg/mL | – | < 4 µg/mL | < 4 µg/mL | < 4 µg/mL | 8 to 32 µg/mL
NCC1CCC(CC(=O)N[C@H]2Cc3cccc(C(=O)O)c3OB2O)(C[N+](=O)[O-])CC1 (stereo partly drawn) [Example 12, (R)-3-(2-(4-(aminomethyl)-1-(nitromethyl)cyclohexyl)acetamido)-2-hydroxy-3,4-dihydro-2H-benzo[e][1,2]oxaborinine-8-carboxylic acid] | – | – | > 32 µg/mL | – | < 4 µg/mL | < 4 µg/mL | 8 to 32 µg/mL | 8 to 32 µg/mL
NC[C@H](N)C(=O)N[C@H]1CC[C@H](CC(=O)N[C@H]2Cc3cccc(C(=O)O)c3OB2O)CC1 [Example 13, (R)-3-(2-(trans-4-((S)-2,3-diaminopropanamido)cyclohexyl)acetamido)-2-hydroxy-3,4-dihydro-2H-benzo[e][1,2]oxaborinine-8-carboxylic acid] | – | – | 8 to 32 µg/mL | < 4 µg/mL | < 4 µg/mL | < 4 µg/mL | 8 to 32 µg/mL | < 4 µg/mL
CN(C)[C@H]1CC[C@H](CC(=O)N[C@H]2Cc3cccc(C(=O)O)c3OB2O)CC1 [Example 14, (R)-3-(2-(trans-4-(dimethylamino)cyclohexyl)acetamido)-2-hydroxy-3,4-dihydro-2H-benzo[e][1,2]oxaborinine-8-carboxylic acid] | – | – | 8 to 32 µg/mL | < 4 µg/mL | < 4 µg/mL | < 4 µg/mL | < 4 µg/mL | > 32 µg/mL
NCCN[C@H]1CC[C@H](CC(=O)N[C@H]2Cc3cccc(C(=O)O)c3OB2O)CC1 [Example 15, (R)-3-(2-(trans-4-(2-aminoethylamino)cyclohexyl)acetamido)-2-hydroxy-3,4-dihydro-2H-benzo[e][1,2]oxaborinine-8-carboxylic acid] | – | – | < 4 µg/mL | < 4 µg/mL | < 4 µg/mL | < 4 µg/mL | < 4 µg/mL | < 4 µg/mL
